Read-outs that look alike come from different tables or passages of the source.
Legend:
[1] = tested on: experimental animal tumors; conditions: Adamson et al. 1975; cited from earlier work
refractory lymphomas = conditions: phase II trials, patients with refractory lymphomas; Foster et al. 1986; cited from earlier work
[2] = tested on: reverse transcriptase of Rauscher murine leukemia virus; conditions: in vitro; Waalkes et al. 1974; cited from earlier work
[3] = tested on: human immunodeficiency virus (HIV-1); conditions: cited from earlier work; for EC50: read-out: EC50 (anti-HIV activity)
T4 lymphocytes [4] = conditions: cited from earlier work
[5] = tested on: human immunodeficiency virus (HIV-1); assay: Anti-HIV-1 activity, protection of T4 lymphocytes from killing by virus (NCI XTT assay); type: cell-based
From the text: (§1) The gallium (III) complexes were screened for anti-HIV-1 activity at the National Cancer Institute, Bethesda, Md., as part of their in vitro Anti-AIDS Drug Discovery Program. The assay is based on the killing (cytopathic effect) of T4 lymphocytes by human immunodeficiency virus (HIV-1) and is designed to evaluate the drug effects at any stage of the virus reproductive cycle. […] All tests are compared with a positive control done at the same time and under identical conditions employing 3'-Azido-3'-deoxythymidine (AZT).
(§2) The general procedure is reprinted below from NCI infomation sheets:
(§3) 1. Candidate agent is dissolved in dimethylsulfoxide, then diluted 1:2000 in cell culture medium. […] dilutions (half-log10) are prepared before adding to 96-well microtiter plated.
(§4) 2. T4 lymphocytes (CEN cell line) are exposed to HIV at a virus-to-cell ratio of approximately 0.05 and are plated along with noninfected control cells into drug-containing wells or wells with medium alone.
(§5) 3. Cultures are incubated at 37° C. in a 5% carbon dioxide atmosphere for 6 days.
(§6) 4. The tetrazolium salt, XTT, is added to all wells, and cultures are incubated to allow formazon colour development by viable cells.
(§7) 5. Individual wells are analysed spectrophotometrically to quantitate formazon production and, in addition, are viewed microscopically for detection of viable cells and confirmation of protective activity.
(§8) 6. Drug-treated virus-infected cells are compared with drug-treated noninfected cells and with other appropriate controls (untreated infected and untreated noninfected cells, drug-containing wells without cells, etc.) on the same plate.
(§9) 7. Data reviewed in comparison with other tests done at the same time, and a determination about activity is made.

T4 lymphocytes [6] = assay: Drug effect on noninfected T4 lymphocytes (NCI XTT assay), IC50; type: cell-based
From the text: as §1, §2, §3, §4, §5, §6, §7, §8, §9

[7] = per os, aqueous formulation, therapeutical dosages; EP-B1-0059148; cited from earlier work
P-388 leukaemia = assay: Antitumor activity, P-388 leukaemia, survival T/C; type: in vivo; conditions: P 388 system
sarcoma 180 = sarcoma 180 system
Experimental: The gallium complexes were administered to animals bearing the P-388 leukaemia or the sarcoma 180 system and the average survival time (T) of the treated animals was compared with the average survival of control animals C. A high value T/C is characteristic of an antitumoral activity. [formula]

[8] = CEM-SS, values from O. S. Weislow et al.
[9] = CEM, values from R. Vince et al.

O=[N+]([O-])[O-].O=[N+]([O-])[O-].O=[N+]([O-])[O-].[Ga+3] [gallium nitrate]
antitumor activity [1]: had shown antitumor activity
antitumor activity (refractory lymphomas): exhibits antitumor activity
inhibition of reverse transcriptase [2]: inhibits the reverse transcriptase

Cc1cn([C@H]2C[C@H](N=[N+]=[N-])[C@@H](CO)O2)c(=O)[nH]c1=O [AZT, 3'-Azido-3'-deoxythymidine]
TI = IC50 /EC50 [3, 8]: 1027
EC50 [3, 8]: 0.186 µM
TI = IC50 /EC50 [3, 9]: 3680
EC50 [3, 9]: 0.187 µM
IC50 (T4 lymphocytes [4]; [8]): 191 µM
IC50 (T4 lymphocytes [4]; [9]): 689 µM

Cc1ccn[nH]1.Cc1ccn[nH]1.Cc1ccn[nH]1.Cc1ccn[nH]1.[Cl-].[Cl-].[Cl][Ga-]([Cl])([Cl])[Cl].[Ga+3] [[(3-mpyr)4 GaCl2]GaCl4, trans-Dichlorotetrakis-(5-methylpyrazole)gallium (III) tetrachlorogallate (III)]
EC50 ([5]; CEM-6): 108 µM
TI = IC50 /EC50 ([5]; CEM-6): 1.52
IC50 (T4 lymphocytes [6]; CEM-6): 164 µM

trans-Dichlorotetrakis-(benzimidazole)gallium(III) chloride [[(bim)4 GaCl2]Cl]
EC50 ([5]; CEM-6): 5.01 µM
TI = IC50 /EC50 ([5]; CEM-6): 76.9
IC50 (T4 lymphocytes [6]; CEM-6): 385 µM

[Cl-].[Cl-].[Cl-].[Ga+3] [GaCl3, gallium (III) chloride]
renal toxicity [7]: no renal toxicity

Dichloro-(2-α-oxybenzylbenzimidzoiato-N,O)gallium(III) [(HBB)GaCl2]
T/C (survival time of treated versus control animals) (P-388 leukaemia): 130%
EC50 ([5]; CEM-IW): 43 µM
TI = IC50 /EC50 ([5]; CEM-IW): 5.14
IC50 (T4 lymphocytes [6]; CEM-IW): 221 µM

O=S(=O)([O-])c1ccc([O-])c2ncccc12.O=S(=O)([O-])c1ccc([O-])c2ncccc12.O=S(=O)([O-])c1ccc([O-])c2ncccc12.[Ga+3].[K+].[K+].[K+] [Tris-(5-sulfono-8-hydroxyquinoline)gallium(III)-potassium salt]
T/C (survival time of treated versus control animals) (sarcoma 180): 153%

Cc1cn[nH]c1.Cc1cn[nH]c1.Cc1cn[nH]c1.Cc1cn[nH]c1.[Cl-].[Cl-].[Cl][Ga-]([Cl])([Cl])[Cl].[Ga+3] [[(4-mpyr)4 GaCl2]GaCl4, trans-Dichlorotetrakis-(4-methylpyrazole)gallium(II) tetrachlorogallate(III)]
EC50 ([5]; CEM-6): 231 µM
TI = IC50 /EC50 ([5]; CEM-6): 1.11
EC50 ([5]; CEM-IW): 50.2 µM
TI = IC50 /EC50 ([5]; CEM-IW): 3.92
IC50 (T4 lymphocytes [6]; CEM-6): 256 µM
IC50 (T4 lymphocytes [6]; CEM-IW): 197 µM
